Biological target: Bromodomain-containing protein 4 (Homo sapiens, UniProt O60885)
Assay: Inhibition of BRD4(1) (unknown origin) by Alpha screen binding assay

IC50 [mM]	SMILES
7	CNC(=O)[C@H](CCCCNC(C)=O)NC
280	C[S+](C)[O-] [DIMETHYL SULFOXIDE]

From ChEMBL document CHEMBL3132839, “Discovery of BET bromodomain inhibitors and their role in target validation” (Medchemcomm, 2014)
